Results as given in PMC12892976, “Alkylation-based optimization of antifungal FPPS inhibitors yields a potent, broad-spectrum lipophilic zoledronate derivative” (mBio, 2025).
Converted amounts (≈) assume the structure as drawn.

Columns and labels:
Aspergillus lentulus [1] = experiment: MIC broth microdilution (CLSI); assay type: cell-based; settings: Aspergillus lentulus DTO 341-G7
Description: (§1) Antifungal susceptibility was determined by broth microdilution according to the CLSI guidelines described in M27-Ed4 ([16]).

[2] = tested on: Cryptococcus bacillisporus; experiment: checkerboard drug interaction (FICI, MICc); assay type: cell-based;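 note: interaction of antifungals with FPPS inhibitors assessed by a simplified diagonal checkerboard screen, with FICI computed under the Loewe additivity model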
Description: (§2) Drug interactions between antifungals and FPPS inhibitors were investigated using a simplified checkerboard diagonal screening method ([45]). […] FICIs were determined according to the Loewe additivity model ([17]).

Cryptococcus gattii [3] = experiment: checkerboard drug interaction (FICI, MICc); assay type: cell-based;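 note: simplified diagonal checkerboard screen pairing antifungals with FPPS inhibitors, FICI computed under the Loewe additivity model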
Description: as §2

Rhizopus oryzae [4] = experiment: MIC broth microdilution (CLSI); assay type: cell-based; settings: Rhizopus oryzae 04-14-364-1703
Description: as §1

Mucor circinelloides = experiment: MIC broth microdilution (CLSI); assay type: cell-based; settings: Mucor circinelloides 80-14-240-5007
Description: as §1

Aspergillus niger = experiment: MIC broth microdilution (CLSI); assay type: cell-based; settings: Aspergillus niger 111
Description: as §1

Aspergillus terreus = experiment: MIC broth microdilution (CLSI); assay type: cell-based; settings: Aspergillus terreus 75-16-089-2500
Description: as §1

Fusarium solani [5] = experiment: checkerboard drug interaction (FICI, MICc); assay type: cell-based;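 note: simplified diagonal checkerboard screen pairing antifungals with FPPS inhibitors, FICI derived under the Loewe additivity model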
Description: as §2

Microsporum canis [6] = experiment: MIC broth microdilution (CLSI); settings: Microsporum canis R-232
Description: as §1

Fusarium solani [7] = experiment: MIC broth microdilution (CLSI); settings: Fusarium solani 04-16-056-1862
Description: as §1

[8] = tested on: Trichophyton interdigitale; experiment: checkerboard drug interaction (FICI, MICc);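 note: simplified diagonal checkerboard screen pairing antifungals with FPPS inhibitors, FICI values calculated under the Loewe additivity model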
Description: as §2

Cryptococcus gattii [9] = experiment: MIC broth microdilution (CLSI); assay type: cell-based; settings: Cryptococcus gattii PNG27
Description: as §1

Rhizopus oryzae [10] = experiment: checkerboard drug interaction (FICI, MICc); assay type: cell-based;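 note: simplified diagonal checkerboard screen pairing antifungals with FPPS inhibitors, FICI calculated under the Loewe additivity model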
Description: as §2

[11] = tested on: Cryptococcus deneoformans; experiment: checkerboard drug interaction (FICI, MICc); assay type: cell-based;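 note: simplified diagonal checkerboard screen pairing antifungals with FPPS inhibitors, FICI calculated under the Loewe additivity model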
Description: as §2

Candida auris = experiment: MIC broth microdilution (CLSI); assay type: cell-based; settings: Candida auris CDC-0384
Description: as §1

Nannizzia nana = experiment: MIC broth microdilution (CLSI); assay type: cell-based; settings: Nannizzia nana R-133
Description: as §1

Candida dubliniensis = experiment: MIC broth microdilution (CLSI); assay type: cell-based; settings: Candida dubliniensis M230642
Description: as §1

Aspergillus lentulus [12] = experiment: checkerboard drug interaction (FICI, MICc); assay type: cell-based;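 note: simplified diagonal checkerboard screen pairing antifungals with FPPS inhibitors, with the interaction index calculated under the Loewe additivity model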
Description: as §2

[13] = tested on: Trichophyton interdigitale; experiment: MIC broth microdilution (CLSI); assay type: cell-based; settings: Trichophyton interdigitale R-234
Description: as §1

Aspergillus udagawae = experiment: checkerboard drug interaction (FICI, MICc); assay type: cell-based;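 note: simplified diagonal checkerboard screen pairing antifungals with FPPS inhibitors, FICI calculated using the Loewe additivity model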
Description: as §2

Candida parapsilosis = experiment: MIC broth microdilution (CLSI); assay type: cell-based; settings: Candida parapsilosis ATCC 22018
Description: (§3) Antifungal susceptibility was determined by broth microdilution according to the CLSI guidelines described in M27-Ed4 ([16]). […] MFC was determined by back-plating drug-treated cultures from MIC broths onto SDA plates. The MFC was defined as the lowest concentration from which no colonies could be cultured.

Paraphyton cookei [14] = experiment: MIC broth microdilution (CLSI); assay type: cell-based; settings: Paraphyton cookei R-639
Description: as §1

Epidermophyton floccosum = experiment: checkerboard drug interaction (FICI, MICc);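 note: simplified diagonal checkerboard screen pairing antifungals with FPPS inhibitors, FICI calculated under the Loewe additivity model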
Description: as §2

Lomentospora prolificans = experiment: checkerboard drug interaction (FICI, MICc);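 note: simplified diagonal checkerboard screen pairing antifungals with FPPS inhibitors, FICI calculated under the Loewe additivity model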
Description: as §2

Microsporum canis [15] = experiment: checkerboard drug interaction (FICI, MICc); assay type: cell-based
Description: as §2

Nannizzia gypsea [16] = experiment: MIC broth microdilution (CLSI); assay type: cell-based; settings: Nannizzia gypsea R-131
Description: as §1

Pichia kudriavzevii [17] = experiment: checkerboard drug interaction (FICI, MICc); assay type: cell-based;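 note: antifungal plus FPPS inhibitor interactions tested in a simplified diagonal checkerboard screen, with FICI calculated under the Loewe additivity model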
Description: as §2

Aspergillus felis = experiment: MIC broth microdilution (CLSI); assay type: cell-based; settings: Aspergillus felis IHE87256683D6
Description: as §1

Pichia kudriavzevii [18] = experiment: MIC broth microdilution (CLSI); assay type: cell-based; settings: Pichia kudriavzavii ATCC 6258
Description: as §3

Scedosporium apiospermum [19] = experiment: MIC broth microdilution (CLSI); assay type: cell-based; settings: Scedosporium apiospermum 04-16-022-2268
Description: as §1

Scedosporium apiospermum [20] = experiment: checkerboard drug interaction (FICI, MICc); assay type: cell-based;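 note: simplified diagonal checkerboard screen of antifungal plus FPPS inhibitor pairs, with FICI computed under the Loewe additivity model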
Description: as §2

Nannizzia gypsea [21] = experiment: checkerboard drug interaction (FICI, MICc);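 note: simplified diagonal checkerboard screen pairing antifungals with FPPS inhibitors, FICI derived using the Loewe additivity model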
Description: as §2

Paraphyton cookei [22] = experiment: checkerboard drug interaction (FICI, MICc);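 note: simplified diagonal checkerboard screen pairing an antifungal with an FPPS inhibitor, FICI computed under the Loewe additivity model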
Description: as §2

Cryptococcus tetragattii = experiment: checkerboard drug interaction (FICI, MICc); assay type: cell-based;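 note: simplified diagonal checkerboard screen pairing antifungals with FPPS inhibitors, with FICI calculated under the Loewe additivity model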
Description: as §2

Aspergillus parafelis = experiment: checkerboard drug interaction (FICI, MICc)
Description: as §2

C[C@@H]1[C@H](O)[C@@H](C)/C=C/C=C/C=C/C=C/C=C/C=C/C=C/[C@H](O[C@@H]2O[C@H](C)[C@@H](O)[C@H](N)[C@@H]2O)C[C@@H]2O[C@](O)(C[C@@H](O)C[C@@H](O)[C@H](O)CC[C@@H](O)C[C@@H](O)CC(=O)O[C@H]1C)C[C@H](O)[C@H]2C(=O)O [AMB, amphotericin B]
MIC / MEC (Aspergillus lentulus [1]): 4 µg/mL (≈ 4.33 µM)
antifungal MICc ([2]; in combination with 10-ZOL): 0.125
antifungal MICc ([2]; in combination with ZOL): 1
antifungal MICc (Cryptococcus gattii [3]; in combination with 10-ZOL): 0.125
antifungal MICc (Cryptococcus gattii [3]; in combination with ZOL): 0.25
MIC / MEC (Rhizopus oryzae [4]): 0.13 µg/mL (≈ 0.141 µM)
MIC / MEC (Mucor circinelloides): 0.25 µg/mL (≈ 0.271 µM)
MIC / MEC (Aspergillus niger): 0.13 µg/mL (≈ 0.141 µM)
MIC / MEC (Aspergillus terreus): 1 µg/mL (≈ 1.08 µM)
antifungal MICc (Fusarium solani [5]; in combination with 10-ZOL): 0.25
antifungal MICc (Fusarium solani [5]; in combination with ZOL): 0.25
MIC / MEC (Microsporum canis [6]): 1 µg/mL (≈ 1.08 µM)
MIC / MEC (Fusarium solani [7]): 0.5 µg/mL (≈ 0.541 µM)
antifungal MICc ([8]; in combination with 10-ZOL): 0.25
antifungal MICc ([8]; in combination with ZOL): 1
MIC / MEC (Cryptococcus gattii [9]): 0.25 µg/mL (≈ 0.271 µM)
antifungal MICc (Rhizopus oryzae [10]; in combination with 10-ZOL): 0.13
antifungal MICc (Rhizopus oryzae [10]; in combination with ZOL): 0.13
antifungal MICc ([11]; in combination with 10-ZOL): 0.125
antifungal MICc ([11]; in combination with ZOL): 0.125
MIC / MEC (Candida auris): 2 µg/mL (≈ 2.16 µM)
MIC / MEC (Nannizzia nana): 0.5 µg/mL (≈ 0.541 µM)
MIC / MEC (Candida dubliniensis): 0.25 µg/mL (≈ 0.271 µM)
antifungal MICc (Aspergillus lentulus [12]; in combination with 10-ZOL): 1
antifungal MICc (Aspergillus lentulus [12]; in combination with ZOL): 2
MIC / MEC [13]: 0.5 µg/mL (≈ 0.541 µM)
antifungal MICc (Aspergillus udagawae; in combination with 10-ZOL): 0.25
antifungal MICc (Aspergillus udagawae; in combination with ZOL): 0.25
MIC / MEC (Candida parapsilosis): 0.5 µg/mL (≈ 0.541 µM)
MIC / MEC (Paraphyton cookei [14]): 1 µg/mL (≈ 1.08 µM)
antifungal MICc (Epidermophyton floccosum; in combination with 10-ZOL): 0.5
antifungal MICc (Epidermophyton floccosum; in combination with ZOL): 0.25
antifungal MICc (Lomentospora prolificans; in combination with 10-ZOL): 4
antifungal MICc (Lomentospora prolificans; in combination with ZOL): 4
antifungal MICc (Microsporum canis [15]; in combination with 10-ZOL): 1
antifungal MICc (Microsporum canis [15]; in combination with ZOL): 0.5
MIC / MEC (Nannizzia gypsea [16]): 0.5 µg/mL (≈ 0.541 µM)
antifungal MICc (Pichia kudriavzevii [17]; in combination with 10-ZOL): 0.25
antifungal MICc (Pichia kudriavzevii [17]; in combination with ZOL): 0.25
MIC / MEC (Aspergillus felis): 4 µg/mL (≈ 4.33 µM)
MIC / MEC (Pichia kudriavzevii [18]): 0.5 µg/mL (≈ 0.541 µM)
MIC / MEC (Scedosporium apiospermum [19]): 8 µg/mL (≈ 8.66 µM)
antifungal MICc (Scedosporium apiospermum [20]; in combination with 10-ZOL): 2
antifungal MICc (Scedosporium apiospermum [20]; in combination with ZOL): 8
antifungal MICc (Nannizzia gypsea [21]; in combination with 10-ZOL): 0.5
antifungal MICc (Nannizzia gypsea [21]; in combination with ZOL): 0.25
antifungal MICc (Paraphyton cookei [22]; in combination with 10-ZOL): 1
antifungal MICc (Paraphyton cookei [22]; in combination with ZOL): 0.25
antifungal MICc (Cryptococcus tetragattii; in combination with 10-ZOL): 0.25
antifungal MICc (Cryptococcus tetragattii; in combination with ZOL): 0.125
antifungal MICc (Aspergillus parafelis; in combination with 10-ZOL): 1
antifungal MICc (Aspergillus parafelis; in combination with ZOL): 4

CC[C@H](C)C[C@H](C)CCCCCCCCC(=O)N[C@H]1C[C@@H](O)[C@@H](NCCN)NC(=O)[C@@H]2[C@@H](O)CCN2C(=O)[C@H]([C@H](O)CCN)NC(=O)[C@H]([C@H](O)[C@@H](O)c2ccc(O)cc2)NC(=O)[C@@H]2C[C@@H](O)CN2C(=O)[C@H]([C@@H](C)O)NC1=O [CAS, caspofungin]
MIC / MEC (Aspergillus lentulus [1]): 4 µg/mL (≈ 3.66 µM)
antifungal MICc ([2]; in combination with 10-ZOL): 2
antifungal MICc ([2]; in combination with ZOL): 8
antifungal MICc (Cryptococcus gattii [3]; in combination with 10-ZOL): 2
antifungal MICc (Cryptococcus gattii [3]; in combination with ZOL): 16
MIC / MEC (Rhizopus oryzae [4]): >16 µg/mL
MIC / MEC (Mucor circinelloides): >16 µg/mL
MIC / MEC (Aspergillus niger): 4 µg/mL (≈ 3.66 µM)
MIC / MEC (Aspergillus terreus): 2 µg/mL (≈ 1.83 µM)
antifungal MICc (Fusarium solani [5]; in combination with 10-ZOL): 16
antifungal MICc (Fusarium solani [5]; in combination with ZOL): 64
MIC / MEC (Microsporum canis [6]): 0.25 µg/mL (≈ 0.229 µM)
MIC / MEC (Fusarium solani [7]): 16 µg/mL (≈ 14.6 µM)
antifungal MICc ([8]; in combination with 10-ZOL): 0.5
antifungal MICc ([8]; in combination with ZOL): 0.25
MIC / MEC (Cryptococcus gattii [9]): 8 µg/mL (≈ 7.32 µM)
antifungal MICc (Rhizopus oryzae [10]; in combination with 10-ZOL): 128
antifungal MICc (Rhizopus oryzae [10]; in combination with ZOL): 4
antifungal MICc ([11]; in combination with 10-ZOL): 2
antifungal MICc ([11]; in combination with ZOL): 8
MIC / MEC (Candida auris): 4 µg/mL (≈ 3.66 µM)
MIC / MEC (Nannizzia nana): 0.13 µg/mL (≈ 0.119 µM)
MIC / MEC (Candida dubliniensis): 0.06 µg/mL (≈ 0.0549 µM)
antifungal MICc (Aspergillus lentulus [12]; in combination with 10-ZOL): 4
antifungal MICc (Aspergillus lentulus [12]; in combination with ZOL): 2
MIC / MEC [13]: 0.25 µg/mL (≈ 0.229 µM)
antifungal MICc (Aspergillus udagawae; in combination with 10-ZOL): 1
antifungal MICc (Aspergillus udagawae; in combination with ZOL): 2
MIC / MEC (Candida parapsilosis): 1 µg/mL (≈ 0.915 µM)
MIC / MEC (Paraphyton cookei [14]): 0.25 µg/mL (≈ 0.229 µM)
antifungal MICc (Epidermophyton floccosum; in combination with 10-ZOL): 0.125
antifungal MICc (Epidermophyton floccosum; in combination with ZOL): 0.25
antifungal MICc (Lomentospora prolificans; in combination with 10-ZOL): 128
antifungal MICc (Lomentospora prolificans; in combination with ZOL): 64
antifungal MICc (Microsporum canis [15]; in combination with 10-ZOL): 0.25
antifungal MICc (Microsporum canis [15]; in combination with ZOL): 0.125
MIC / MEC (Nannizzia gypsea [16]): 1 µg/mL (≈ 0.915 µM)
antifungal MICc (Pichia kudriavzevii [17]; in combination with 10-ZOL): 0.5
antifungal MICc (Pichia kudriavzevii [17]; in combination with ZOL): 0.5
MIC / MEC (Aspergillus felis): 0.25 µg/mL (≈ 0.229 µM)
MIC / MEC (Pichia kudriavzevii [18]): 1 µg/mL (≈ 0.915 µM)
MIC / MEC (Scedosporium apiospermum [19]): 16 µg/mL (≈ 14.6 µM)
antifungal MICc (Scedosporium apiospermum [20]; in combination with 10-ZOL): 16
antifungal MICc (Scedosporium apiospermum [20]; in combination with ZOL): 32
antifungal MICc (Nannizzia gypsea [21]; in combination with 10-ZOL): 0.25
antifungal MICc (Nannizzia gypsea [21]; in combination with ZOL): 0.5
antifungal MICc (Paraphyton cookei [22]; in combination with 10-ZOL): 0.25
antifungal MICc (Paraphyton cookei [22]; in combination with ZOL): 0.125
antifungal MICc (Cryptococcus tetragattii; in combination with 10-ZOL): 1
antifungal MICc (Cryptococcus tetragattii; in combination with ZOL): 16
antifungal MICc (Aspergillus parafelis; in combination with 10-ZOL): 0.5
antifungal MICc (Aspergillus parafelis; in combination with ZOL): 0.065
